{
  "source": "the supplement of paper PMC11208160",
  "data": [
    {"test": "recombinant barcode read abundance after kanamycin selection (control-corrected) (log10(CPM+1)); higher = more efficient recombination; sequences stand for … in AGTGCAGAGAAAATCGGCCAGTTTTCTCTGCCTGCAGTCCGCATGCCGT…ATTTATGCAGCGGACTGCCTTTCTCCCAAAGTGATAAACCGGACAGTATCATGGACCGGTTTTCCCGGTAATCCGTATTTGCAAGGTTGGTTTCACT; site = the 11-nt target", "how_it_was_run": "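In E. coli, a pooled library matched targets to IS621 bridge RNA target-binding loops and was introduced alongside a donor plasmid. Cells went onto chloramphenicol/ampicillin/kanamycin with 0.1 mM IPTG or onto chloramphenicol/ampicillin LB agar as control, in duplicate. Recombination efficiency, from recombinant-junction barcodes as counts per million, is averaged and control-corrected. It is reported as log10(CPM+1).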", "values": [
      {"sequence": "CGGTCCCCTTGGGTTCTAACCTGTTGCCAAA [CGGTCCCCTTG_LTGcore_CT_RTGcore_TT] (site CGGTCCCCTTG) (LTG core: CT, RTG core: TT)", "recombinant barcode read abundance (log10)": 0.0341},
      {"sequence": "CGGTCCCCTTGGGTTCTAACCTGTTGCCAAG [CGGTCCCCTTG_LTGcore_CT_RTGcore_CT] (site CGGTCCCCTTG) (LTG core: CT, RTG core: CT)", "recombinant barcode read abundance (log10)": 1.32},
      {"sequence": "CGGTCCCCTTGGGTTCTAACCTGTTGCCACA [CGGTCCCCTTG_LTGcore_CT_RTGcore_TG] (site CGGTCCCCTTG) (LTG core: CT, RTG core: TG)", "recombinant barcode read abundance (log10)": 0.0539},
      {"sequence": "CGGTCCCCTTGGGTTCTAACCTGTTGCCACG [CGGTCCCCTTG_LTGcore_CT_RTGcore_CG] (site CGGTCCCCTTG) (LTG core: CT, RTG core: CG)", "recombinant barcode read abundance (log10)": 0.0795},
      {"sequence": "CGGTCCCCTTGGGTTCTAACCTGTTGCCAGC [CGGTCCCCTTG_LTGcore_CT_RTGcore_GC] (site CGGTCCCCTTG) (LTG core: CT, RTG core: GC)", "recombinant barcode read abundance (log10)": 0.178},
      {"sequence": "CGGTCCCCTTGGGTTCTAACCTGTTGCCATA [CGGTCCCCTTG_LTGcore_CT_RTGcore_TA] (site CGGTCCCCTTG) (LTG core: CT, RTG core: TA)", "recombinant barcode read abundance (log10)": 0.222},
      {"sequence": "CGGTCCCCTTGGGTTCTAACCTGTTGCCATC [CGGTCCCCTTG_LTGcore_CT_RTGcore_GA] (site CGGTCCCCTTG) (LTG core: CT, RTG core: GA)", "recombinant barcode read abundance (log10)": 0.208},
      {"sequence": "CGGTCCCCTTGGGTTCTAACCTGTTGCCATT [CGGTCCCCTTG_LTGcore_CT_RTGcore_AA] (site CGGTCCCCTTG) (LTG core: CT, RTG core: AA)", "recombinant barcode read abundance (log10)": 0.369},
      {"sequence": "GAGCCCAACTGGGTTCTAACCTGTTGCCTGT [GAGCCCACTAG_LTGcore_AC_RTGcore_AC] (site GAGCCCACTAG) (LTG core: AC, RTG core: AC)", "recombinant barcode read abundance (log10)": 0.199},
      {"sequence": "GAGCCCAATTGGGTTCTAACCTGTTGCCTAT [GAGCCCACTAG_LTGcore_AT_RTGcore_AT] (site GAGCCCACTAG) (LTG core: AT, RTG core: AT)", "recombinant barcode read abundance (log10)": 0.154},
      {"sequence": "GAGCCCACCTGGGTTCTAACCTGTTGCCTGG [GAGCCCACTAG_LTGcore_CC_RTGcore_CC] (site GAGCCCACTAG) (LTG core: CC, RTG core: CC)", "recombinant barcode read abundance (log10)": 0.0451},
      {"sequence": "GAGCCCACGTGGGTTCTAACCTGTTGCCTAG [GAGCCCACTAG_LTGcore_CG_RTGcore_CT] (site GAGCCCACTAG) (LTG core: CG, RTG core: CT)", "recombinant barcode read abundance (log10)": 0.2},
      {"sequence": "GAGCCCATCTGGGTTCTAACCTGTTGCCTGA [GAGCCCACTAG_LTGcore_TC_RTGcore_TC] (site GAGCCCACTAG) (LTG core: TC, RTG core: TC)", "recombinant barcode read abundance (log10)": 0.0397},
      {"sequence": "GAGGCCTCATGGGTTCTAACCTGTTGCCATG [GAGGCCTCTTG_LTGcore_CA_RTGcore_CA] (site GAGGCCTCTTG) (LTG core: CA, RTG core: CA)", "recombinant barcode read abundance (log10)": 0.0323},
      {"sequence": "GAGGCCTCCTGGGTTCTAACCTGTTGCCAAG [GAGGCCTCTTG_LTGcore_CC_RTGcore_CT] (site GAGGCCTCTTG) (LTG core: CC, RTG core: CT)", "recombinant barcode read abundance (log10)": 0.273},
      {"sequence": "GAGGCCTCGTGGGTTCTAACCTGTTGCCACG [GAGGCCTCTTG_LTGcore_CG_RTGcore_CG] (site GAGGCCTCTTG) (LTG core: CG, RTG core: CG)", "recombinant barcode read abundance (log10)": 0.169},
      {"sequence": "GAGGCCTCTTGGGTTCTAACCTGTTGCCAGC [GAGGCCTCTTG_LTGcore_CT_RTGcore_GC] (site GAGGCCTCTTG) (LTG core: CT, RTG core: GC)", "recombinant barcode read abundance (log10)": 0.285},
      {"sequence": "GAGGCCTGATGGGTTCTAACCTGTTGCCATC [GAGGCCTCTTG_LTGcore_GA_RTGcore_GA] (site GAGGCCTCTTG) (LTG core: GA, RTG core: GA)", "recombinant barcode read abundance (log10)": 0.231},
      {"sequence": "GAGGCCTGCTGGGTTCTAACCTGTTGCCAGC [GAGGCCTCTTG_LTGcore_GC_RTGcore_GC] (site GAGGCCTCTTG) (LTG core: GC, RTG core: GC)", "recombinant barcode read abundance (log10)": 0.275},
      {"sequence": "GAGGCCTTATGGGTTCTAACCTGTTGCCATA [GAGGCCTCTTG_LTGcore_TA_RTGcore_TA] (site GAGGCCTCTTG) (LTG core: TA, RTG core: TA)", "recombinant barcode read abundance (log10)": 0.172},
      {"sequence": "GAGTCCAAATGGGTTCTAACCTGTTGCGTAG [GAGTCCACTAC_LTGcore_AA_RTGcore_CT] (site GAGTCCACTAC) (LTG core: AA, RTG core: CT)", "recombinant barcode read abundance (log10)": 0.0292},
      {"sequence": "GAGTCCACTTGGGTTCTAACCTGTTGCGTAG [GAGTCCACTAC_LTGcore_CT_RTGcore_CT] (site GAGTCCACTAC) (LTG core: CT, RTG core: CT)", "recombinant barcode read abundance (log10)": 2.39},
      {"sequence": "GAGTCCACTTGGGTTCTAACCTGTTGCGTCC [GAGTCCACTAC_LTGcore_CT_RTGcore_GG] (site GAGTCCACTAC) (LTG core: CT, RTG core: GG)", "recombinant barcode read abundance (log10)": 0.482},
      {"sequence": "GAGTCCACTTGGGTTCTAACCTGTTGCGTGA [GAGTCCACTAC_LTGcore_CT_RTGcore_TC] (site GAGTCCACTAC) (LTG core: CT, RTG core: TC)", "recombinant barcode read abundance (log10)": 0.116},
      {"sequence": "GAGTCCACTTGGGTTCTAACCTGTTGCGTTT [GAGTCCACTAC_LTGcore_CT_RTGcore_AA] (site GAGTCCACTAC) (LTG core: CT, RTG core: AA)", "recombinant barcode read abundance (log10)": 1.07},
      {"sequence": "GAGTCCTATTGGGTTCTAACCTGTTGCCTAG [GAGTCCTCTAG_LTGcore_AT_RTGcore_CT] (site GAGTCCTCTAG) (LTG core: AT, RTG core: CT)", "recombinant barcode read abundance (log10)": 0.0701},
      {"sequence": "GAGTCCTATTGGGTTCTAACCTGTTGCCTAT [GAGTCCTCTAG_LTGcore_AT_RTGcore_AT] (site GAGTCCTCTAG) (LTG core: AT, RTG core: AT)", "recombinant barcode read abundance (log10)": 0.0431},
      {"sequence": "GAGTCCTCGTGGGTTCTAACCTGTTGCCTAG [GAGTCCTCTAG_LTGcore_CG_RTGcore_CT] (site GAGTCCTCTAG) (LTG core: CG, RTG core: CT)", "recombinant barcode read abundance (log10)": 0.274},
      {"sequence": "GAGTCCTCTTGGGTTCTAACCTGTTGCCTAT [GAGTCCTCTAG_LTGcore_CT_RTGcore_AT] (site GAGTCCTCTAG) (LTG core: CT, RTG core: AT)", "recombinant barcode read abundance (log10)": 0.495},
      {"sequence": "GAGTCCTCTTGGGTTCTAACCTGTTGCCTGC [GAGTCCTCTAG_LTGcore_CT_RTGcore_GC] (site GAGTCCTCTAG) (LTG core: CT, RTG core: GC)", "recombinant barcode read abundance (log10)": 0.293},
      {"sequence": "GAGTCCTCTTGGGTTCTAACCTGTTGCCTTT [GAGTCCTCTAG_LTGcore_CT_RTGcore_AA] (site GAGTCCTCTAG) (LTG core: CT, RTG core: AA)", "recombinant barcode read abundance (log10)": 0.398},
      {"sequence": "GCGCGACAATGGGTTCTAACCTGTTGCTTAG [GCGCGACCTAA_LTGcore_AA_RTGcore_CT] (site GCGCGACCTAA) (LTG core: AA, RTG core: CT)", "recombinant barcode read abundance (log10)": 0}
    ]}
  ]
}
